{
  "source": "patent US20080153907A1",
  "about": "“Pharmaceutical Composition for the Treatment of Cancer Comprising Lhm-Ra Complex” (NANOHYBRID CO., LTD., priority 2005, published 2008)",
  "key": {"CHX tumor cells [1]": {"tested_on": "CHX tumor cells", "experiment": "Activity of lactic acid dehydrogenase associated with apoptotic cell death", "type": "cell-based", "conditions": "250 μg/ml of RA, 12 hours", "protocol": "In order to evaluate an anticancer effect of a LDH-RA hybrid obtained according the present invention, activity of lactic acid dehydrogenase associated with apoptotic cell death was measured. For this, the CHX tumor cells were seeded into each well of a 96-well plate. The CHX tumor cells were divided into 6 groups: normal group with no treatment, LDH-dose group with 1,000 μg/ml of LDH, RA-dose group with 250 μg/ml of RA, LDH-RA low-dose group with 25 μg/ml of LDH-RA, LDH-RA mid-dose group with 50 μg/ml of LDH-RA, and LDH-RA high-dose group with 100 μg/ml of LDH-RA. All groups were cultured for 12 hours. 20 μl of pyruvate substrate (NADH 1 mg/ml) was added to each group, and the cultures were mixed at room temperature for 2 minutes and stirred at 37° C. for 30 minutes. 20 μl of a color reagent (Sigma 505-2) was added to each culture, and the resultant cultures were mixed at room temperature for 20 minutes. 100 μg of 0.4N NaOH was added to each culture, and the resultant cultures were mixed at room temperature for 15 minutes. Referring to FIG. 9, the activities of lactic acid dehydrogenase of the normal group, the LDH-dose group, and the RA-dose group were 6±1.5%, 13±2%, and 42±5%, respectively. The activities of lactic acid dehydrogenase of the LDH-RA low-dose group, the LDH-RA mid-dose group, and the LDH-RA high-dose group were 41±2%, 76±6%, and 86±5%, respectively. […]"}, "CHX tumor cells [2]": {"tested_on": "CHX tumor cells", "experiment": "Tumor development in xenografted nude mice (tumor size)", "type": "in vivo, athymic nude mice", "conditions": "RA 0.5 mg/ml, LDH-RA 50 μg/ml, every two weeks for 8 weeks; control tumor 30 mm after 8 weeks", "protocol": "(§1) The CHX tumor cells were collected at 1×10^7 cells/well and administered subcutaneously to the hind legs of athymic nude mice. Appearance of tumor mass was observed every week. Tumor masses appeared 3 weeks after the subcutaneous administration, and, when a tumor size was increased to 5 mm, one group of the mice was untreated (control group), and the other groups of the mice were treated as follows: a LDH-dose group with LDH (1 mg/ml), a RA-dose group with RA (0.5 mg/ml), and a LDH-RA dose group with LDH-RA (50 μg/ml). The LDH-dose group, the RA-dose group, and the LDH-RA dose group were further treated with LDH, RA, and LDH-RA, respectively, every two weeks for 8 weeks. Referring to FIG. 12, in the control group, a tumor size was increased to 30 mm after 8 weeks. […] In the RA-dose group, a tumor size was reduced by about 20%. In the LDH-RA dose group, a tumor size was reduced by 80% or more. After then, the mice were anesthetized. Tumor tissues were cut, fixed in formalin, and cut into sections (5 μm thick) on a microtome. The sections were stained with hematoxylin/eosin (H/E) and examined with a microscope (50× magnification), and the results are shown in FIG. 13. Referring to FIG. 13, in the control group, tumor masses were found in almost all tissues, thereby causing growth retardation of tumor, resulting in necrosis. […]"}, "CHX tumor cells [3]": {"tested_on": "CHX tumor cells", "experiment": "H/E staining of tumor tissues from xenografted nude mice", "type": "in vivo, athymic nude mice", "conditions": "RA 0.5 mg/ml, every two weeks for 8 weeks", "protocol": "as §1"}},
  "data": [
    {"molecule": "CC1=C(/C=C/C(C)=C/C=C/C(C)=C/C(=O)O)C(C)(C)CCC1", "note": "[RA, retinoic acid]", "values": [
      {"measurement": "activity of lactic acid dehydrogenase", "setting": "CHX tumor cells [1]", "value": "42±5", "unit": "%"},
      {"measurement": "tumor size reduced by", "setting": "CHX tumor cells [2]", "value": "about 20%"},
      {"measurement": "reduction in tumor tissues (H/E staining)", "setting": "CHX tumor cells [3]", "value": 15, "unit": "%"}
    ]}
  ]
}
